Reference: patent publication US10774064B2 (Cadent Therapeutics, Inc., priority 2016, dated 2020)

Target: T1, small-conductance Ca2+-activated K+ channels (SK channels, subtype 2) (Homo sapiens, UniProt Q9H2S1)
T1 construct: expressed in transfected cells; host or cells: HEK293
Assay: whole-cell patch-clamp of ionic current through SK2 channels in HEK293 cells (SC100)
Assay type: cell-based
Conditions: concentration that increases the basal current by 100%; HEK293 cells expressing SK2 channels
Summary of the method: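 SC100, the concentration doubling basal current (a 100% increase), was taken from SK2 currents recorded by whole-cell patch-clamp in SK2-expressing HEK293 cells.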

Row | SMILES | SC100
1 | CC1(O)CN(c2cc(NC3CCC(F)(F)CC3)nc(-n3ccc(CF)n3)c2)C1 [Compound 326, 1-(2-((4,4-difluorocyclohexyl)amino)-6-(3-(fluoromethyl)-1H-pyrazol-1-yl)pyridin-4-yl)-3-methylazetidin-3-ol] | ++ (++ means 200 nM-1000 nM)
2 | CC(=O)NCc1cc(NC2CCC(F)(F)CC2)nc(-n2ccc(CF)n2)n1 [Compound 327, N-((6-((4,4-difluorocyclohexyl)amino)-2-(3-(fluoromethyl)-1H-pyrazol-1-yl)pyrimidin-4-yl)methyl)acetamide] | + (+ means >1 uM)
3 | O=C(NCc1cc(NC2CCC(F)(F)CC2)nc(-n2ccc(CF)n2)n1)C1CCC1 [Compound 328, N-((6-((4,4-difluorocyclohexyl)amino)-2-(3-(fluoromethyl)-1H-pyrazol-1-yl)pyrimidin-4-yl)methyl)cyclobutanecarboxamide] | + (+ means >1 uM)
4 | CC(C)(C)C(=O)N1CC(Oc2cc(NC3CCC(F)(F)CC3)nc(-c3nc(C(F)F)cs3)n2)C1 [Compound 329, 1-(3-((6-((4,4-difluorocyclohexyl)amino)-2-(4-(difluoromethyl)thiazol-2-yl)pyrimidin-4-yl)oxy)azetidin-1-yl)-2,2-dimethylpropan-1-one] | ++ (++ means 200 nM-1000 nM)
5 | COC(=O)N1CC(Oc2cc(NC3CCC(F)(F)CC3)nc(-c3nc(C(F)F)cs3)n2)C1 [Compound 330, methyl 3-((6-((4,4-difluorocyclohexyl)amino)-2-(4-(difluoromethyl)thiazol-2-yl)pyrimidin-4-yl)oxy)azetidine-1-carboxylate] | ++ (++ means 200 nM-1000 nM)
6 | CC1NC(c2cc(NC3CCC(F)(F)CC3)nc(-n3ccc(CF)n3)n2)=NO1 (stereo not shown) [Compound 331, N-(4,4-difluorocyclohexyl)-2-(3-(fluoromethyl)-1H-pyrazol-1-yl)-6-(5-methyl-4,5-dihydro-1,2,4-oxadiazol-3-yl)pyrimidin-4-amine] | + (+ means >1 uM)
7 | FC1(F)CCC(Nc2cc(N3CCOCC3)nc(-c3nc(C(F)(F)F)cs3)n2)CC1 [Compound 332, N-(4,4-difluorocyclohexyl)-6-morpholino-2-(4-(trifluoromethyl)thiazol-2-yl)pyrimidin-4-amine] | ++ (++ means 200 nM-1000 nM)
8 | O=C(NCc1cc(NC2CCC(F)(F)CC2)nc(-n2ccc(CF)n2)n1)C1COC1 [Compound 333, N-((6-((4,4-difluorocyclohexyl)amino)-2-(3-(fluoromethyl)-1H-pyrazol-1-yl)pyrimidin-4-yl)methyl)oxetane-3-carboxamide] | + (+ means >1 uM)
9 | Cc1nc(-c2cc(NC3CCC(F)(F)CC3)nc(-n3ccc(CF)n3)n2)no1 [Compound 334, N-(4,4-difluorocyclohexyl)-2-(3-(fluoromethyl)-1H-pyrazol-1-yl)-6-(5-methyl-1,2,4-oxadiazol-3-yl)pyrimidin-4-amine] | + (+ means >1 uM)
10 | COC(=O)N1CC(OCc2cc(NC3CCC(F)(F)CC3)nc(-n3ccc(CF)n3)n2)C1 [Compound 335, methyl 3-((6-((4,4-difluorocyclohexyl)amino)-2-(3-(fluoromethyl)-1H-pyrazol-1-yl)pyrimidin-4-yl)methoxy)azetidine-1-carboxylate] | ++ (++ means 200 nM-1000 nM)
11 | FCc1csc(-c2nc(NC3CCC(F)(F)CC3)cc(N3CCOCC3)n2)n1 [Compound 336, N-(4,4-difluorocyclohexyl)-2-(4-(fluoromethyl)thiazol-2-yl)-6-morpholinopyrimidin-4-amine] | ++ (++ means 200 nM-1000 nM)
12 | CC(O)c1csc(-c2nc(NC3CCC(F)(F)CC3)cc(OC3CN(C(=O)C(C)(C)C)C3)n2)n1 (stereo not shown) [Compound 337] | + (+ means >1 uM)
13 | FCc1ccn(-c2nc(NC3CCC(F)(F)CC3)cc(N3CC4(COC4)C3)n2)n1 [Compound 338, N-(4,4-difluorocyclohexyl)-2-(3-(fluoromethyl)-1H-pyrazol-1-yl)-6-(2-oxa-6-azaspiro[3.3]heptan-6-yl)pyrimidin-4-amine] | ++ (++ means 200 nM-1000 nM)
14 | FC(F)c1csc(-c2nc(NC3CCC(F)(F)CC3)cc(N3CCOCC3)n2)n1 [Compound 339, N-(4,4-difluorocyclohexyl)-2-(4-(difluoromethyl)thiazol-2-yl)-6-morpholinopyrimidin-4-amine] | ++ (++ means 200 nM-1000 nM)
15 | CC(O)c1csc(-c2nc(NC3CCC(F)(F)CC3)cc(N3CCOCC3)n2)n1 (stereo not shown) [Compound 340, 1-(2-(4-((4,4-difluorocyclohexyl)amino)-6-morpholinopyrimidin-2-yl)thiazol-4-yl)ethan-1-ol] | + (+ means >1 uM)
16 | CCC(=O)N1CC(Oc2cc(NC3CCC(F)(F)CC3)nc(-c3nc(CF)cs3)n2)C1 [Compound 341, 1-(3-((6-((4,4-difluorocyclohexyl)amino)-2-(4-(fluoromethyl)thiazol-2-yl)pyrimidin-4-yl)oxy)azetidin-1-yl)propan-1-one] | ++ (++ means 200 nM-1000 nM)

Row | SMILES | SC100
17 | CC(C)C(=O)N1CC(Oc2cc(NC3CCC(F)(F)CC3)nc(-c3nc(CF)cs3)n2)C1 [Compound 342, 1-(3-((6-((4,4-difluorocyclohexyl)amino)-2-(4-(fluoromethyl)thiazol-2-yl)pyrimidin-4-yl)oxy)azetidin-1-yl)-2-methylpropan-1-one] | ++ (++ means 200 nM-1000 nM)
18 | Cc1cc(C)n(-c2cc(C(O)c3ncco3)cc(NC3CCC(F)(F)CC3)n2)n1 (stereo not shown) [Compound 343, (2-((4,4-difluorocyclohexyl)amino)-6-(3,5-dimethyl-1H-pyrazol-1-yl)pyridin-4-yl)(oxazol-2-yl)methanol] | ++ (++ means 200 nM-1000 nM)
19 | COC(=O)N1CC(Oc2cc(NC3CCC(F)(F)CC3)nc(-c3nc(C(C)O)cs3)n2)C1 (stereo not shown) [Compound 344, methyl 3-((6-((4,4-difluorocyclohexyl)amino)-2-(4-(1-hydroxyethyl)thiazol-2-yl)pyrimidin-4-yl)oxy)azetidine-1-carboxylate] | + (+ means >1 uM)
20 | Cc1cn(-c2cc(OC3COC3)cc(NC3CCC(F)(F)CC3)n2)nc1CF [Compound 345, N-(4,4-difluorocyclohexyl)-6-(3-(fluoromethyl)-4-methyl-1H-pyrazol-1-yl)-4-(oxetan-3-yloxy)pyridin-2-amine] | ++ (++ means 200 nM-1000 nM)
21 | FCc1ccn(-c2nc(NC3CCC(F)(F)CC3)cc(OC3CC(F)C3)n2)n1 (stereo not shown) [Compound 346, N-(4,4-difluorocyclohexyl)-6-(3-fluorocyclobutoxy)-2-(3-(fluoromethyl)-1H-pyrazol-1-yl)pyrimidin-4-amine] | + (+ means >1 uM)
22 | FCc1ccn(-c2nc(NC3CCC(F)(F)CC3)cc(OC3CC(F)(F)C3)n2)n1 [Compound 347, 6-(3,3-difluorocyclobutoxy)-N-(4,4-difluorocyclohexyl)-2-(3-(fluoromethyl)-1H-pyrazol-1-yl)pyrimidin-4-amine] | ++ (++ means 200 nM-1000 nM)
23 | CC(C)C(=O)NCc1cc(NC2CCC(F)(F)CC2)nc(-n2ccc(CF)n2)c1 [Compound 348, N-((2-((4,4-difluorocyclohexyl)amino)-6-(3-(fluoromethyl)-1H-pyrazol-1-yl)pyridin-4-yl)methyl)isobutyramide] | ++ (++ means 200 nM-1000 nM)
24 | CC(=O)NCc1cc(NC2CCC(F)(F)CC2)nc(-n2cc(C)c(CF)n2)c1 [Compound 349, N-((2-((4,4-difluorocyclohexyl)amino)-6-(3-(fluoromethyl)-4-methyl-1H-pyrazol-1-yl)pyridin-4-yl)methyl)acetamide] | ++ (++ means 200 nM-1000 nM)
25 | Cc1cc(C)n(-c2nc(NC3CCCC(F)(F)C3)cc(C(N)=O)n2)n1 (stereo not shown) [Compound 350, 6-((3,3-difluorocyclohexyl)amino)-2-(3,5-dimethyl-1H-pyrazol-1-yl)pyrimidine-4-carboxamide] | + (+ means >1 uM)
26 | Cc1cc(C)n(-c2nc(N[C@H]3CCCC(F)(F)C3)cc([C@H](C)O)n2)n1 [Compound 355, (−)-1-(6-(((S)-3,3-difluorocyclohexyl)amino)-2-(3,5-dimethyl-1H-pyrazol-1-yl)pyrimidin-4-yl)ethan-1-ol] | + (+ means >1 uM)
27 | Cc1cc(C)n(-c2nc(NC3CCCC(F)(F)C3)cc(C(C)(C)O)n2)n1 (stereo not shown) [Compound 356, 2-(6-((3,3-difluorocyclohexyl)amino)-2-(3,5-dimethyl-1H-pyrazol-1-yl)pyrimidin-4-yl)propan-2-ol] | + (+ means >1 uM)
28 | Cc1cc(C)n(-c2nc(CO)cc(NC3CCCC(F)(F)C3)n2)n1 (stereo not shown) [Compound 357, (6-((3,3-difluorocyclohexyl)amino)-2-(3,5-dimethyl-1H-pyrazol-1-yl)pyrimidin-4-yl)methanol] | + (+ means >1 uM)
29 | Cc1cc(C)n(-c2nc(CF)cc(NC3CCCC(F)(F)C3)n2)n1 (stereo not shown) [Compound 358, N-(3,3-difluorocyclohexyl)-2-(3,5-dimethyl-1H-pyrazol-1-yl)-6-(fluoromethyl)pyrimidin-4-amine] | + (+ means >1 uM)
30 | COc1cc(NC2CCC(F)(F)CC2)nc(-n2nc(C)cc2C)n1 [Compound 360, N-(4,4-difluorocyclohexyl)-2-(3,5-dimethyl-1H-pyrazol-1-yl)-6-methoxypyrimidin-4-amine] | ++ (++ means 200 nM-1000 nM)
31 | COc1cc(NC2CCC(F)(F)CC2)nc(-c2nc(C)cs2)n1 [Compound 361, N-(4,4-difluorocyclohexyl)-6-methoxy-2-(4-methylthiazol-2-yl)pyrimidin-4-amine] | ++ (++ means 200 nM-1000 nM)
32 | FC1(F)CCC(Nc2cc(N3CCOCC3)nc(-n3ccc(C4CC4)n3)n2)CC1 [Compound 365, 2-(3-cyclopropyl-1H-pyrazol-1-yl)-N-(4,4-difluorocyclohexyl)-6-morpholinopyrimidin-4-amine] | ++ (++ means 200 nM-1000 nM)

Same assay, conditions: whole-cell patch-clamp, HEK293 cells expressing SK2 channels; concentration that increases the basal current by 100%

Row | SMILES | SC100 (μM)
33 | Cc1csc(-c2nc(NC3CCC(F)(F)CC3)cc(N3CCN(C(C)C)CC3)n2)n1 [IN10864-031-P1] | +++ (+++ means <200 nM)
34 | Cc1csc(-c2nc(NC3CCC(F)(F)CC3)cc(N3CCC(F)CC3)n2)n1 [IN10864-33.P1] | ++ (++ means 200 nM-1000 nM)
